Legend:
H3 receptor = biological target: T1, H3 receptor (Cavia porcellus, UniProt Q9JI35); assay: H3 receptor bioassay (functional assay), guinea pig ileal longitudinal muscle myenteric plexus; type: cell-based; conditions: electrically stimulated guinea pig ileum; for Kb: antagonism of R-(α)-methylhistamine E/[A] curve, Schild's methods, variance ±0.15 log units, read-out: pKB (functional assay) (converted)
T1 construct: the longitudinal muscle layer and adhering myenteric plexus was teased away; from tissue; host or cells: ileal longitudinal muscle with adhering myenteric plexus of male Dunkin-Hartley guinea pigs
In short: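 Longitudinal muscle-myenteric plexus strips from male Dunkin-Hartley guinea pig ileum were held in Krebs-Henseleit at 37 °C, field-stimulated (0.1 Hz, 0.5 ms, supramaximal voltage) and recorded isometrically. After compound incubation, cumulative R-(α)-methylhistamine curves were taken as % inhibition of twitch height. Antagonist affinity came from curve rightward shift by Schild analysis.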

Histamine H3 = biological target: T2, Histamine H3 (Cavia porcellus, UniProt Q9JI35); assay: Histamine H3 radioligand binding assay, [3H]-R-α-methylhistamine, guinea pig ileum longitudinal muscle myenteric plexus membranes; conditions: 3 nM [3H]-R-α-methylhistamine, 165 min, 21±3° C., Cheng Prusoff, variance ±0.12 log units; for Ki: read-out: pK1 (binding assay) (converted)
T2 construct: ileum longitudinal muscle myenteric plexus membranes; from tissue; host or cells: ileum longitudinal muscle myenteric plexus membranes of male Dunkin Hartley guinea pigs
Description: Histamine H3 Radioligand Binding Assay
Male Dunkin Hartley guinea pigs (200-300 g) were used. The small intestine was rapidly removed (cut ~5 cm from caecum and 5 cm from stomach) and placed in ice-cold 20 mM Hepes-NaOH buffer (pH7.4 at 21±3° C.). The tissue was cut into ~10 cm segments, flushed through with ice-cold 20 mM Hepes-NaOH buffer and placed in a beaker containing fresh buffer at 4° C. 10 cm segments of ileum were threaded onto a glass pipette and the longitudinal muscle myenteric plexus was peeled away from the circular muscle using damp cotton-wool. Longitudinal muscle myenteric plexus was immediately placed in ice-cold Viaspan® solution (~100 ml for tissue from 3 guinea pigs) and placed in the refrigerator for 24 hours.
Pre-soaked tissue was weighed and minced with scissors. The tissue was then homogenised in Viaspan® using a polytron (Kinematica AG; PT-DA 3020/2TS, 3×~1-2 s). 50 ml of 500 mM Tris HCl (pH6.9 at 21±3° C.) was added to the tissue and the mixture centrifuged at 39,800×g for 12 min at 4° C. The supernatant was discarded and rehomogenised in 100 ml ice-cold 20 mM Hepes-NaOH buffer (pH7.4 at 21±3° C.) using a teflon-in-glass homogeniser (setting 10; 3×). The homogenate was recentrifuged at 39,800×g and the pellet resuspended in 20 mM Hepes-NaOH buffer (pH7.4 at 21±3° C.), to a tissue concentration of 50 mg.ml^-1, using a polytron (Brinkman, PT10, 3×~1 s).
Guinea pig ileum longitudinal muscle myenteric plexus membranes (400 μl) were incubated for 165 min at 21±3° C. in a final volume of 500 μl with 20 mM Hepes-NaOH buffer containing [^3 H]-R-α-methylhistamine (50 μl; 3 nM) and competing compound. Total and non-specific binding of [^3 H]-R-α-methylhistamine were defined using 50 μl of buffer and 50 μl of 10 μM thioperamide, respectively. The assay was terminated by rapid filtration through Whatman GF/B filters, presoaked (2 hr) in 0. 1% polyethyleneimine,using a Brandell Cell Harvester. The filters were washed (3×3 ml) with ice-cold 50 mM Tris-HCl (pH6.9 at 21±3° C.), transferred into scintillation vials, 5 ml liquid scintillation cocktail was added and after 4 hours the bound radioactivity was determined by counting (4 min) in a Beckman liquid scintillation counter.
Data are analysed using GraphPad prism and the general equation for a competition curve with variable Hill slope (nH).
Y=Non-specific binding+(Total binding-Non-specific binding)/1+10^((logIC.sbsp.50^-X).n.sbsp.H^)
X is the log concentration of competing compound, Y is the binding obtained at each concentration of X, pIC50 is the concentration of the competitor required to compete for half of the specific binding.
The IC50 is converted to the K1 using the Cheng Prusoff equation, […]
IC50 is the concentration of competitor required to compete for half the specific binding, L is the radioligand concentration used, KD is the equilibrium dissociation constant for the radioligand determined by saturation experiments.
Typical variance in the functional assay is ±0.15 log units. Typical variance in the binding assay is ±0.12 log units. This means that if the discrepancy between the two assays is greater than about 0.5 log units, then this difference on average is significant.

T1 sequence (Q9JI35 whole entry): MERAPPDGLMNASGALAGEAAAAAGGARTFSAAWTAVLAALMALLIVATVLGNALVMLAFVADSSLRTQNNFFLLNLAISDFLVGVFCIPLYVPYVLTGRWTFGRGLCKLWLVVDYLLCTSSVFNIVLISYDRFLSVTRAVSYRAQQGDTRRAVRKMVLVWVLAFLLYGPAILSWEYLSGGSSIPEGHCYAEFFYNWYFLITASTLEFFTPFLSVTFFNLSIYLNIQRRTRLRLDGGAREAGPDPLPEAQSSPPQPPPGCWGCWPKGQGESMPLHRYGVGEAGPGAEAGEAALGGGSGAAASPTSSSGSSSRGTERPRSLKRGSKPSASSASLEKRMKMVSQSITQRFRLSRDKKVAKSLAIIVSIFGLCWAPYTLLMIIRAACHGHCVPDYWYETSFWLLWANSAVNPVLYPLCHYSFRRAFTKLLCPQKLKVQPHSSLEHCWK
T2 sequence (Q9JI35 whole entry): as above

Compound	Kb (H3 receptor) [nM]	Ki (Histamine H3) [nM]	EC50 (H3 receptor; printed in the pKB column, read-out: p[A]50 (functional assay) (converted)) [nM]	pK1 (binding assay) (Histamine H3)
O=S(=O)(NCc1ccc(Br)cc1)N(CCCCc1c[nH]cn1)Cc1ccc(Br)cc1 [Example 67, N,N'-Di-[(4-bromophenyl)methyl]-N-[4-(4(5)-imidazoyl)butyl]-sulfamide]	603	141		
CN(CCCCc1c[nH]cn1)S(=O)(=O)N(C)Cc1ccc(Cl)cc1 [Example 68, N'-(4-Chlorophenyl)methyl-N,N'-dimethyl-N-[4-(4(5)-imidazoyl)butyl]-sulfamide]	17	11.2		
CN(CCCCc1c[nH]cn1)S(=O)(=O)NCc1ccc(Cl)cc1 [Example 69, N'-(4-Chlorophenyl)methyl-N-[4-(4(5)-imidazoyl)butyl]-N-methyl-sulfamide]	1.2	1.86		
CN(Cc1ccc(Cl)cc1)S(=O)(=O)NCCCCc1c[nH]cn1 [Example 70]	15.8	11.2		
C[C@H](Cc1c[nH]cn1)NS(=O)(=O)c1ccc2ccccc2c1 [Example 71, (R)-(+)-N-[2-(4(5)-Imidazoyl)-1-methyl-ethyl]-2-naphthalenesulfonamide]			776	8.44
